Assay results published in ChEMBL document CHEMBL6153157, “Novel 3-Aminothieno[2,3-b]pyridine-2-carboxamides with Activity against Mycobacterium tuberculosis” (ACS Med Chem Lett, 2025).

Experiments:
[1] = Selectivity index, ratio of IC50 for cytotoxicity against human HepG2 cells to IC90 for antibacterial activity against wild type Mycobacterium tuberculosis H37Rv-LP DREAM8 strain expressing codon-optimized DsRed; format: toxicity, cell-based
[2] = Cytotoxicity against human HepG2 cells assessed as cell growth inhibition incubated for 3 days by CellTiter-Glo reagent-based luminescence assay; format: toxicity
[3] = test system: Mycobacterium tuberculosis; assay: Antibacterial activity against wild type Mycobacterium tuberculosis H37Rv-LP DREAM8 strain expressing codon-optimized DsRed assessed growth inhibition incubated for 5 days by fluorescence spectrophotometric assay; format: functional; conditions: H37Rv-LP DREAM8, 120 h, time 5 day

Row | Compound | selectivity ratio [1] | IC50 at 3 days [2] | IC90 [3]
1 | COc1ccc(-c2cc(C(F)(F)F)c3c(N)c(C(=O)NC4CC5(C4)CN(C(=O)OC(C)(C)C)C5)sc3n2)cc1 | < 1 | 12 µM | > 100 µM
2 | COc1ccc(-c2cc(C(F)(F)F)c3c(N)c(C(=O)Nc4ccc(C)c(C)c4)sc3n2)cc1 | < 1 | 79 µM | > 100 µM
3 | Cc1cccc(NC(=O)c2sc3nc(-c4cccs4)cc(C(F)(F)F)c3c2N)c1C |  | > 100 µM | > 100 µM
4 | COc1ccc(-c2cc(C(F)(F)F)c3c(N)c(C(=O)NC4CC4)sc3n2)cc1 |  | > 100 µM | > 100 µM
5 | COc1ccc(-c2cc(C(F)(F)F)c3c(N)c(C(=O)NC45CC6CC(CC(C6)C4)C5)sc3n2)cc1 | < 91 | > 100 µM | 1.1 µM
6 | COc1ccc(-c2ccc3c(N)c(C(=O)N4CCOCC4)sc3n2)cc1OC |  | > 100 µM | > 100 µM
7 | Nc1c(C(=O)N2CC(F)(F)C2)sc2nc(-c3ccccc3)ccc12 |  | 38 µM | > 100 µM
8 | COc1ccc(-c2cc(C(F)(F)F)c3c(N)c(C(=O)N4CCC4)sc3n2)cc1 | < 1 | 62 µM | > 100 µM
9 | Cc1cccc(NC(=O)c2sc3nc(-c4cccs4)cc(C(F)(F)F)c3c2N)c1 |  | 32 µM | > 100 µM
10 | Nc1c(C(=O)N2CCOCC2)sc2nc(Cl)ccc12 |  | > 100 µM | > 100 µM
11 | COc1ccc(-c2cc(C(F)(F)F)c3c(N)c(C(=O)NCc4cccc(C)c4C)sc3n2)cc1 | 38 | 50 µM | 1.3 µM
12 | COc1ccc(-c2ccc3c(N)c(C(=O)Nc4cccc(C)c4C)sc3n2)cc1 |  | > 100 µM | > 100 µM
13 | COc1ccc(-c2cc(C(F)(F)F)c3c(N)c(C(=O)NCC45CC6CC(CC(C6)C4)C5)sc3n2)cc1 | < 71 | > 100 µM | 1.4 µM
14 | Nc1c(C(=O)NCc2ccc(F)cc2)sc2ncccc12 |  | > 100 µM | > 100 µM
15 | COc1ccc(-c2cc(C(F)(F)F)c3c(N)c(C(=O)N4C5CCCC4COC5)sc3n2)cc1 | < 1 | 42 µM | > 100 µM
16 | Cc1cccc(NC(=O)c2sc3nc(-c4ccco4)cc(C(F)(F)F)c3c2N)c1C |  | > 100 µM | > 100 µM
17 | COc1ccc(-c2cc(C(F)(F)F)c3c(N)c(C(=O)Nc4cccc(C)c4C)sc3n2)cn1 |  | 31 µM | 1.4 µM
18 | COC1CN(C(=O)c2sc3ncccc3c2N)C1 |  | > 100 µM | > 100 µM
19 | CN(C)C(=O)c1sc2nc(-c3ccccc3)ccc2c1N |  | > 100 µM | > 100 µM
20 | CCNC(=O)c1sc2nc(-c3ccc(Cl)cc3Cl)cc(C(F)(F)F)c2c1N |  | 36 µM | > 100 µM
21 | Nc1c(C(=O)N2CCOCC2)sc2ncccc12 |  | > 100 µM | > 100 µM
22 | Cc1ccc(-c2cc(C(F)(F)F)c3c(N)c(C(=O)Nc4cccc(C)c4C)sc3n2)cc1 |  | 60 µM | > 100 µM
23 | COc1ccc(-c2cc(C(F)(F)F)c3c(N)c(C(=O)N4CC(OC)C4)sc3n2)cc1 | < 1 | 50 µM | > 100 µM
24 | COc1ccc(-c2ccc3c(N)c(C(=O)N4CCOCC4)sc3n2)cc1 |  | 63 µM | > 100 µM

Row | Compound | selectivity ratio [1] | IC50 at 3 days [2] | IC90 [3]
25 | COC1CN(C(=O)c2sc3nc(-c4ccccc4)ccc3c2N)C1 |  | 38 µM | > 100 µM
26 | COc1ccc(-c2cc(C(F)(F)F)c3c(N)c(C(=O)N4CC5(CCOC5)C4)sc3n2)cc1 | < 1 | 33 µM | > 50 µM
27 | COc1ccc(-c2cc(C(F)(F)F)c3c(N)c(C(=O)NCCSC)sc3n2)cc1 |  | > 100 µM | 41 µM
28 | COc1ccc(-c2cc(C(F)(F)F)c3c(N)c(C(=O)Nc4cccc(C)c4F)sc3n2)cc1 |  | 42 µM | > 100 µM
29 | COc1ccc(-c2cc(C(F)(F)F)c3c(N)c(C(=O)N4CC(F)(F)C4)sc3n2)cc1 | < 1 | > 50 µM | > 50 µM
30 | Nc1c(C(=O)NCc2ccccc2)sc2nc(-c3ccccc3)ccc12 |  | > 100 µM | > 100 µM
31 | COc1ccc(-c2cc(C(F)(F)F)c3c(N)c(C(=O)N4CCCCC4)sc3n2)cc1 |  | > 100 µM | > 100 µM
32 | COc1ccc(-c2cc(C(F)(F)F)c3c(N)c(C(=O)NC45CC(C4)C5)sc3n2)cc1 | < 1 | 36 µM | > 50 µM
33 | COc1ccc(-c2cc(C(F)(F)F)c3c(N)c(C(=O)NCCc4ccccc4)sc3n2)cc1 | < 1 | 23 µM | > 100 µM
34 | COc1ccc(-c2cc(C(F)(F)F)c3c(N)c(C(=O)Nc4cccc(C)c4C)sc3n2)cc1 |  | 44 µM | 1.1 µM
35 | Cc1ccc(NC(=O)c2sc3nc(C)cc(C(F)(F)F)c3c2N)cc1 |  | 31 µM | > 100 µM
36 | Cc1cccc(NC(=O)c2sc3nc(-c4ccccc4)cc(C(F)(F)F)c3c2N)c1C |  | > 100 µM | > 100 µM
37 | Nc1c(C(=O)NCc2ccc(F)cc2)sc2nc(-c3ccccc3)ccc12 |  | > 100 µM | > 100 µM
38 | COc1cccc(-c2cc(C(F)(F)F)c3c(N)c(C(=O)Nc4cccc(C)c4C)sc3n2)c1 |  | 52 µM | > 100 µM
39 | COc1ccc(-c2cc(C(F)(F)F)c3c(N)c(C(=O)NC4CCC(c5ccc(C(C)(C)C)cc5)CC4)sc3n2)cc1 (stereo not given) |  | > 10 µM | > 10 µM
40 | Nc1c(C(=O)N2CCOCC2)sc2nc(-c3ccc(F)cc3)ccc12 |  | 41 µM | > 100 µM
41 | COc1ccc(-c2cc(C(F)(F)F)c3c(N)c(C(=O)Nc4cc(C)cc(C)c4)sc3n2)cc1 | < 1 | 47 µM | > 100 µM
42 | CN(C)C(=O)c1sc2ncccc2c1N |  | > 100 µM | > 100 µM
43 | Nc1c(C(=O)Nc2ccccc2F)sc2nc(-c3ccccc3)cc(C(F)(F)F)c12 |  | > 100 µM | > 100 µM
44 | Nc1c(C(=O)N2CCCC2)sc2nc(-c3ccc4c(c3)OCO4)cc(C(F)(F)F)c12 |  | > 100 µM | > 100 µM
45 | Nc1c(C(=O)NCc2ccccc2)sc2ncccc12 |  | > 100 µM | > 100 µM
46 | COc1ccc(-c2cc(C(F)(F)F)c3c(N)c(C(=O)NC(C)c4ccccc4)sc3n2)cc1 (stereo not given) | 83 | 52 µM | 0.63 µM
47 | Cc1ccc(NC(=O)c2sc3nc(-c4ccccc4)cc(C(F)(F)F)c3c2N)cc1 |  | 24 µM | > 100 µM
48 | COc1ccc(-c2cc(C(F)(F)F)c3c(N)c(C(=O)Nc4cccc(C)c4C)sc3n2)cc1OC |  | 42 µM | > 100 µM

Row | Compound | selectivity ratio [1] | IC50 at 3 days [2] | IC90 [3]
49 | COc1ccc(-c2cc(C(F)(F)F)c3c(N)c(C(=O)N4CC(C)OC(C)C4)sc3n2)cc1 (stereo not given) | < 1 | 44 µM | > 50 µM
50 | COc1ccc(-c2cc(C(F)(F)F)c3c(N)c(C(=O)Nc4c(C)cccc4C)sc3n2)cc1 |  | > 100 µM | > 100 µM
51 | COc1ccc(-c2cc(C(F)(F)F)c3c(N)c(C(=O)Nc4cc(C)ccc4C)sc3n2)cc1 | < 1 | 23 µM | > 100 µM
52 | Nc1c(C(=O)N2CCOCC2)sc2nc(-c3cccnc3)ccc12 |  | > 100 µM | > 100 µM
53 | COc1ccc(-c2cc(C(F)(F)F)c3c(N)c(C(=O)NCc4ccccc4C)sc3n2)cc1 | 10 | 23 µM | 2.4 µM
54 | COc1ccc(-c2cc(C(F)(F)F)c3c(N)c(C(=O)NC4COC4)sc3n2)cc1 |  | > 100 µM | > 100 µM
55 | COc1ccc(-c2cc(C(F)(F)F)c3c(N)c(C(=O)Nc4ccccc4)sc3n2)cc1 |  | > 100 µM | > 100 µM
56 | COc1ccc(-c2cc(C(F)(F)F)c3c(N)c(C(=O)N4CCCC4)sc3n2)cc1 |  | > 50 µM | > 50 µM
57 | Nc1c(C(=O)Nc2cccnc2)sc2nc(-c3ccccc3)cc(C(F)(F)F)c12 |  | > 100 µM | > 100 µM
58 | Nc1c(C(=O)Nc2ccccc2C(F)(F)F)sc2nc(-c3ccccc3)cc(C(F)(F)F)c12 |  | 97 µM | > 100 µM
59 | Cc1cccc(CNC(=O)c2sc3nc(-c4ccc5c(c4)OCO5)cc(C(F)(F)F)c3c2N)c1C |  | 44 µM | > 100 µM
60 | Nc1c(C(=O)N2CC(F)(F)C2)sc2ncccc12 |  | > 100 µM | > 100 µM
61 | Nc1c(C(=O)N2CCOCC2)sc2nc(-c3ccccc3)ccc12 |  | 56 µM | > 100 µM
62 | COc1ccc(-c2cc(C(F)(F)F)c3c(N)c(C(=O)NC(C)C4CCCCC4)sc3n2)cc1 (stereo not given) | > 91 | > 100 µM | 1.1 µM
63 | COc1ccc(-c2cc(C(F)(F)F)c3c(N)c(C(=O)Nc4cccc(C)c4OC)sc3n2)cc1 |  | > 100 µM | > 100 µM
64 | COc1ccc(-c2cc(C)c3c(N)c(C(=O)Nc4cccc(C)c4C)sc3n2)cc1 |  | 27 µM | > 100 µM
65 | CCN(CC)C(=O)c1sc2ncccc2c1N |  | > 100 µM | > 100 µM
66 | COc1ccc(-c2cc(C(F)(F)F)c3cc(C(=O)NC(C)c4ccccc4)sc3n2)cc1 (stereo not given) |  | > 100 µM | 2.5 µM
67 | COCCNC(=O)c1sc2nc(-c3ccc(OC)cc3)cc(C(F)(F)F)c2c1N |  | > 100 µM | > 100 µM
68 | Nc1c(C(=O)NC23CC4CC(CC(C4)C2)C3)sc2nc(-c3ccc4c(c3)OCO4)cc(C(F)(F)F)c12 |  | 81 µM | 0.68 µM
69 | Cc1cccc(NC(=O)c2sc3nc(-c4ccc5c(c4)OCO5)cc(C(F)(F)F)c3c2N)c1C |  | 46 µM | 0.94 µM
70 | Nc1c(C(=O)N2CCOCC2)sc2nc(-c3ccoc3)ccc12 |  | 50 µM | > 100 µM
71 | COc1ccc(-c2cc(C(F)(F)F)c3c(N)c(C(=O)Nc4ccc(C)cc4C)sc3n2)cc1 |  | > 100 µM | > 100 µM
